Test results from patent publication US8207216B2, “Benzofuran-3-yl(indol-3-yl) maleimides as potent GSK3 inhibitors” (The Board of Trustees of the University of Illinois, priority 2006, dated 2012).

Experiments:
[1] = system: GSK-3β; assay: GSK-3β activity in cells by glycogen synthase phosphorylation, Western immunoblotting; type: cell-based
[2] = target: T1, recombinant human His6-GSK-3β (Homo sapiens, UniProt P49841); assay: GSK-3β kinase assay, [γ32P] transfer to primed glycogen synthase peptide; type: biochemical; settings: 10 μM ATP; 10 μM pGSM peptide; 30 minutes at 30° C.; read-out: IC50 (nM), GSK-3β inhibition;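 note: phosphate incorporation quantified by liquid scintillation counting of the filters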
T1 construct: His6; purchased EMD Biosciences

[3] = system: MIAPaCa-2; assay: Antiproliferation MTS assay, pancreatic cancer cells; type: cell-based; settings: Homo sapiens
[4] = system: pancreatic cancer cell lines; assay: Proliferation and survival of pancreatic cancer cells (overall statements); type: cell-based
Procedure: (§1) The pancreatic cancer cell lines BxPc-3, HupT3, MiaPaCa-2, Panc 04.03, and SU86.86 were obtained from ATCC (Rockville, Md.) and were grown in medium (DMEM or RPMI) containing 10% fetal calf serum and L-glutamine. Pancreatic cancer cells were plated out in duplicate into 6-wells of a 96-well microtiter plate at 2.5−4×10^3 cells per well. Four-hours post plating, individual wells were treated with diluent (DMSO) or varying concentrations of commercial compounds, AR-A014418 and SB216763, or the indicated GSK inhibitors of this invention from a concentration of 1 nM to 50 microM. […] The IC50s were calculated using XLfit (IDBS Limited, Guildford, UK).

[5] = system: mice; settings: Hanania et al. 2005, Brody et al. 2003; cited from earlier work
[6] = system: XIAP; assay: NFκB-mediated expression of XIAP in pancreatic cancer cells; type: cell-based
[7] = system: SKOV3; assay: Antiproliferation assay, ovarian cancer cells; type: cell-based; settings: Homo sapiens, SK-OV-3; ovarian cancer cell proliferation
Procedure: as §1
(§2) Similar antiproliferation assays were performed using ovarian cancer cells. Compound 40 is of particular interest for inhibition of ovarian cancer cell proliferation.

[8] = system: OVCA432; assay: Antiproliferation assay, ovarian cancer cells; type: cell-based; settings: ovarian cancer cell proliferation
Procedure: as §1, §2

[9] = system: HupT3; assay: Antiproliferation MTS assay, pancreatic cancer cells; type: cell-based; settings: Homo sapiens, HuP-T3, as reported in Gaisina et al. (2009) J. Med. Chem. 52(7), 1853-1863
[10] = system: pancreatic cancer cell lines; settings: BXPC3, HupT3 and MiaPaCa-2; Ougolkov et al. (2007) Blood 110: 735-742; cited from earlier work
[11] = system: BXPC-3; assay: Antiproliferation MTS assay, pancreatic cancer cells; type: cell-based; settings: Homo sapiens, BXPC-3, as reported in Gaisina et al. (2009) J. Med. Chem. 52(7), 1853-1863
[12] = target: PKCβ2 (Homo sapiens, UniProt P05771); assay: Inhibition of various kinases (% inhibition); type: biochemical
Text: (§3) Additional examples of selectivity are illustrated in Table 4.

[13] = target: T2, PDK1 (Homo sapiens, UniProt O15530); assay: Inhibition of various kinases (% inhibition); type: biochemical
T2 sequence (O15530 1-556): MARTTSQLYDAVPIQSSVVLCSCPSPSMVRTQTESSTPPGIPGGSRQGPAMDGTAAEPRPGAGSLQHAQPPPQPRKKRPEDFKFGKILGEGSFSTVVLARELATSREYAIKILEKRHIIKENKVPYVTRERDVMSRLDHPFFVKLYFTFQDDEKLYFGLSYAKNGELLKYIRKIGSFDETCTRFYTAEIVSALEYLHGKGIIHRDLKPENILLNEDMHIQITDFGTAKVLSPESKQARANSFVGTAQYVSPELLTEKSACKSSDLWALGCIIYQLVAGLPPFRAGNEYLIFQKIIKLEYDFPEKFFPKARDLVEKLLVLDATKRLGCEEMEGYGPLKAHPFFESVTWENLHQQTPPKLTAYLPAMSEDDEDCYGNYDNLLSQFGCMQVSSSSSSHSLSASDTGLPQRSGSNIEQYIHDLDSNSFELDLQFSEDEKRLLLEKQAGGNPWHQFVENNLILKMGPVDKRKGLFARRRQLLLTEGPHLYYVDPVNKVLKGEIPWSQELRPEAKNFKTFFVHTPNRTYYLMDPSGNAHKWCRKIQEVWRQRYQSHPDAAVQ
Text: as §3

[14] = target: CDK2 (Homo sapiens, UniProt P24941); assay: Inhibition of various kinases (% inhibition); type: biochemical
Text: as §3

[15] = target: GSK3α (Homo sapiens, UniProt P49840); assay: Inhibition of various kinases (% inhibition); type: biochemical
Text: as §3

[16] = MIA PaCa-2, as reported in Gaisina et al. (2009) J. Med. Chem. 52(7), 1853-1863

T1 sequence (P49841 whole entry): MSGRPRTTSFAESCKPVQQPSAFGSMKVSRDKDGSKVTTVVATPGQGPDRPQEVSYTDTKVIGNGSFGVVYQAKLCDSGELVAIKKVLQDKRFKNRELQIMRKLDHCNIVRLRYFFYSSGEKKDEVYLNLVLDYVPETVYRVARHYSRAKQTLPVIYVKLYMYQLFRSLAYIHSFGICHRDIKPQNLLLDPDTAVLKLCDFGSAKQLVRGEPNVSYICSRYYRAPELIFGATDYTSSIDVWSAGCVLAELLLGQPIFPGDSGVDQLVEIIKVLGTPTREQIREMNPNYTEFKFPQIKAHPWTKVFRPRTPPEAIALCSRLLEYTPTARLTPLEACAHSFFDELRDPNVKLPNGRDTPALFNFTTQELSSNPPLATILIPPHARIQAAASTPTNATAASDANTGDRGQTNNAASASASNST
Sequence of PKCβ2 (P05771 1-673 isoform P05771-2): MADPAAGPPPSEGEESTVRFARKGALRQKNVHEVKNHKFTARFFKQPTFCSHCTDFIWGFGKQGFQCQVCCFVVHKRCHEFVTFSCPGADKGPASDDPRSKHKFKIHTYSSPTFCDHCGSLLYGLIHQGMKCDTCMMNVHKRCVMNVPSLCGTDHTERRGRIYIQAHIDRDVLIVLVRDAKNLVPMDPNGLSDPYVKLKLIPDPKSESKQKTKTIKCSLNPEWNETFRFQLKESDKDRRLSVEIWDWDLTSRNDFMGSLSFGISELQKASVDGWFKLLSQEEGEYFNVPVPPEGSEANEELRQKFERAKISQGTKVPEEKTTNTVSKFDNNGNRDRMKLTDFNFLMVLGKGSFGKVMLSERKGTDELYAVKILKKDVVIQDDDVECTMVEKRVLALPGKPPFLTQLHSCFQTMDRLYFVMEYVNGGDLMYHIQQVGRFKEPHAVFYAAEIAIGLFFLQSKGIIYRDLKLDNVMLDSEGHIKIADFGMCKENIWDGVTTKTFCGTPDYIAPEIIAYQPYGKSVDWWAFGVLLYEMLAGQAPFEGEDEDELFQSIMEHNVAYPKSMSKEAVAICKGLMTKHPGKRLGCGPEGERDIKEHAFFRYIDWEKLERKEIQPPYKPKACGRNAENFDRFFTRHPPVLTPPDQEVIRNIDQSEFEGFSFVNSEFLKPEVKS
Sequence of GSK3α (P49840 whole entry, species assumed): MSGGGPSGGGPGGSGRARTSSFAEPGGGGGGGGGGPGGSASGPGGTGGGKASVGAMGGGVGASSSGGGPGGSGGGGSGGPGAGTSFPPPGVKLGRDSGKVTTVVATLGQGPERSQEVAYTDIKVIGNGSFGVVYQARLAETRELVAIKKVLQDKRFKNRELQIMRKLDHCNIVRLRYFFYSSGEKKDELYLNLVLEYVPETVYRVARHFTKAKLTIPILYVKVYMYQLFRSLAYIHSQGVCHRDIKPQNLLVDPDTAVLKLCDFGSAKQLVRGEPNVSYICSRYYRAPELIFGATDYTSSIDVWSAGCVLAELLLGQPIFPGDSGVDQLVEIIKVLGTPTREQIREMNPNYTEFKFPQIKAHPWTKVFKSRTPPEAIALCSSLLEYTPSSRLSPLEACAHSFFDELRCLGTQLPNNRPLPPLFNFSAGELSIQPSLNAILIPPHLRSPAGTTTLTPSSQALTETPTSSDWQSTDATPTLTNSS

| IC50 ([3]; MIA PaCa-2, 72 hrs, MTS) | IC50 [3, 16] | SMILES | GSK-3β activity in pancreatic cancer cells (phosphorylation of glycogen synthase) [1] | IC50 [2] | NFκB-mediated expression of XIAP [6] | Pancreatic cancer cell proliferation, reference compounds [10] | other results |
| --- | --- | --- | --- | --- | --- | --- | --- |
| > 50 µM | – | COc1cc2c(C3=C(c4coc5ccccc45)C(=O)NC3=O)cn(C)c2cc1Cl [Compound 42, 3-Benzofuran-3-yl-4-(6-chloro-5-methoxy-1-methyl-1H-indol-3-yl)-pyrrole-2,5-dione] | did not affect GSK-3β activity | 440 ± 22 nM | – | – | Proliferation and survival of pancreatic cancer cells [4]: did not affect GSK-3β activity, proliferation or survival |
| – | – | CCCC(CCC)C(=O)O [valporate] | – | – | – | – | Sensorimotor gating (prepulse inhibition) [5]: improve sensorimotor gating |
| – | – | Cn1cc(C2=C(c3coc4ccc(F)cc34)C(=O)NC2=O)c2cc3c(cc21)OCO3 [Compound 40, 3-(5-Fluoro-benzofuran-3-yl)-4-(5-methyl-5H-[1,3]dioxolo[4,5-f]indol-7-yl)-pyrrole-2,5-dione] | effectively inhibited GSK-3β activity | 708 ± 156 nM | pronounced decrease in NFκB-mediated expression of XIAP | – | IC50 [7]: 10.5 µM; IC50 [8]: 11.2 µM |
| 25 µM | 29 ± 1.7 µM | COc1ccc(CNC(=O)Nc2ncc([N+](=O)[O-])s2)cc1 [AR-A014418, reference compound] | – | – | – | significant decrease in pancreatic cancer cell proliferation | IC50 [9]: 22 ± 2.1 µM; IC50 [11]: 14 ± 0.6 µM |
| – | – | COc1cccc2c(C3=C(c4cn(C)c5cc(I)c(F)cc45)C(=O)NC3=O)coc12 [Compound 10, 3-(5-Fluoro-6-iodo-1-methyl-1H-indol-3-yl)-4-(7-methoxy-benzofuran-3-yl)-pyrrole-2,5-dione] | effectively inhibited GSK-3β activity | 247 ± 28 nM | pronounced decrease in NFκB-mediated expression of XIAP | – | inhibition at 1 µM ([12]; 1 μM): 2%; inhibition at 10 µM ([12]; 10 μM): 15%; inhibition at 1 µM ([13]; 1 μM): -1%; inhibition at 10 µM ([13]; 10 μM): 6%; inhibition at 1 µM ([14]; 1 μM): 9%; inhibition at 10 µM ([14]; 10 μM): 35%; inhibition at 1 µM ([15]; 1 μM): 60%; inhibition at 10 µM ([15]; 10 μM): 95% |
| 25 µM | 25 ± 0.9 µM | Cn1cc(C2=C(c3ccc(Cl)cc3Cl)C(=O)NC2=O)c2ccccc21 [SB216763, reference compound] | – | – | – | significant decrease in pancreatic cancer cell proliferation | – |
